Source: patent EP1359152B1, “Diazabicyclic derivatives as nicotinic acetylcholine receptor ligands” (ABBOTT LABORATORIES, priority 1999, dated 2000)
Structures can show the parent of a compound that is named as a salt.

The molecules below were run against T1, neuronal nicotinic acetylcholine receptors (Rattus norvegicus, UniProt P09483+P12390) (assay: [3H]-cytisine binding to neuronal nicotinic acetylcholine receptors, crude synaptic membranes from whole rat brain).
T1 construct: crude synaptic membrane preparations from whole rat brain; from tissue; host or cells: whole rat brain, crude synaptic membranes
Method: The In Vitro protocols for determination of nicotinic acetylcholine channel receptor binding potencies of ligands were determined as follows.
Washed membranes were stored at-80 °C prior to use. Frozen aliquots were slowly thawed and resuspended in 20 volumes of buffer (containing: 120 mM NaCl, 5 mM KCI, 2 mM MgCl2, 2 mM CaCl2 and 50 mM Tris-Cl, pH 7.4 @4 °C). After centrifuging at 20,000x g for 15 minutes, the pellets were resuspended in 30 volumes of buffer.
The test compounds were dissolved in water to make 10 mM stock solutions. Each solution was then diluted (1:100) with buffer (as above) and further taken through seven serial log dilutions to produce test solutions from 10^-5 to 10^-11 M.
Samples were incubated for 60 minutes at 4 °C, then rapidly filtered through Whatman GF/B filters presoaked in 0.5% polyethyleneimine using 3 x 4 mL of ice-cold buffer. The filters are counted in 4 mL of Ecolume® (ICN). Nonspecific binding was determined in the presence of 10 µM (-)-nicotine and values were expressed as a percentage of total binding. IC50 values were determined with the RS-1 (BBN) nonlinear least squares curve-fitting program and IC50 values were converted to Ki values using the Cheng and Prusoff correction (Ki=IC50/(1+[ligand]/Kd of ligand).

T1 sequence (P09483 31-630): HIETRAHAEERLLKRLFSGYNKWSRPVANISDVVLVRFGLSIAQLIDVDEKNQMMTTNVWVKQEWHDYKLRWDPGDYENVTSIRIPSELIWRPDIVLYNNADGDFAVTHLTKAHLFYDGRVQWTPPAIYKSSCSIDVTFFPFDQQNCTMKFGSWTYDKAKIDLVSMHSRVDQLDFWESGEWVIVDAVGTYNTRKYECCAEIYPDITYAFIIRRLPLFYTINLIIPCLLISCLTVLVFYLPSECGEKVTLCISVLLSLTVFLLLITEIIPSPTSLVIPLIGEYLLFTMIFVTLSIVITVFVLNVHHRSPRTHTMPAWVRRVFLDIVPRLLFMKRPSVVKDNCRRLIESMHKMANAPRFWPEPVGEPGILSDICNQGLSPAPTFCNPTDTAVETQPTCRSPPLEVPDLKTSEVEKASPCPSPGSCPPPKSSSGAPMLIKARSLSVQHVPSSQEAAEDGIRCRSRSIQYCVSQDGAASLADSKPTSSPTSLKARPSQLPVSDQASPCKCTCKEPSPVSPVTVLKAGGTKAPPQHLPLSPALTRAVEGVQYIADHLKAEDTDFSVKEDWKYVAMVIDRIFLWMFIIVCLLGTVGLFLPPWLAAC
T1 sequence (P12390 25-500): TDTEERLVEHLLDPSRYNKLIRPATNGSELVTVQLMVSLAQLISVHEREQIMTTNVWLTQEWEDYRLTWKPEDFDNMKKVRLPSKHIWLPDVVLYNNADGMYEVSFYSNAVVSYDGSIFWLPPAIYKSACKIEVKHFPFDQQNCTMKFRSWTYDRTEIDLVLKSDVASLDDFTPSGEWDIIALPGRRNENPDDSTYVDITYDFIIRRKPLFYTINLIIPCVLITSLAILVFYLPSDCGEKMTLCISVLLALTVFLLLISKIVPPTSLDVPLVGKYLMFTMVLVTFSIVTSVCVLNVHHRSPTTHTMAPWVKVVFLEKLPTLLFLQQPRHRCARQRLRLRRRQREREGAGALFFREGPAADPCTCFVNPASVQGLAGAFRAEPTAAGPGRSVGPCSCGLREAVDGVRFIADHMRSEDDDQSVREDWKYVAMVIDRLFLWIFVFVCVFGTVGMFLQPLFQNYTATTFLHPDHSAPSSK

Row | SMILES | Ki
1 | c1cncc(N2CC3CCC(C2)N3)c1 [Example 13, 3-(3-pyridinyl)-3,8-diazabicyclo[3.2.1]octane dihydrochloride] | 0.41 nM
2 | c1cncc(N2C[C@@H]3C[C@H]2CN3)c1 [Example 17, (1S,4S)-2-(3-pyridinyl)-2,5-diazabicyclo[2.2.1]heptane 4-methylbenzenesulfonate] | 0.063 nM
3 | Nc1ccc(N2C[C@@H]3C[C@H]2CN3)cn1 [Example 3, (1S,4S)-2-(6-amino-3-pyridinyl)-2,5-diazabicyclo[2.2.1]heptane trihydrochloride] | 20 nM
4 | c1ccc2ncc(N3C[C@@H]4C[C@H]3CN4)cc2c1 [Example 53, (1S,4S)-2-(3-quinolinyl)-2,5-diazabicyclo[2.2.1]heptane acetate] | 17 nM
5 | Cc1cc(N2C[C@@H]3C[C@H]2CN3)sn1 [Example 54, (1S,4S)-2-(3-methyl-5-isothiazolyl)-2.5-diazabicyclo[2.2.1]heptane acetate] | 5 nM
6 | Oc1cc(N2C[C@@H]3C[C@H]2CN3)cnc1Cl [Example 45, (1S,4S)-2-(6-chloro-5-hydroxy-3-pyridinyl)-2,5-diazabicyclo[2.2.1]heptane 4-methylbenzenesulfonate] | 1.6 nM
7 | Clc1ccc(N2C[C@@H]3C[C@H]2CN3)nc1 [Example 18, (1S,4S)-2-(5-chloro-2-pyridinyl)-2,5-diazabicyclo[2.2.1]heptane dihydrochloride, reference compound] | 400 nM
8 | Clc1ccc(N2CC3CC2CCN3)cn1 (stereo not shown) [Example 49, 6-(6-chloro-3-pyridinyl)-2,6-diazabicyclo[3.2.1]octane bis(4-methylbenzenesulfonate)] | 2.7 nM
9 | c1cncc(N2CC3CNCC2C3)c1 (stereo not shown) [Example 59, 6-(3-pyridinyl)-3,6-diazabicyclo[3.2.1]octane] | 2.2 nM
10 | N#Cc1cncc(N2C[C@@H]3C[C@H]2CN3)c1 [Example 32, (1S,4S)-2-(5-cyano-3-pyridinyl)-2,5-diazabicyclo[2.2.1]heptane 4-methylbenzenesulfonate] | 1.6 nM
11 | Clc1ccc(N2C3CCNCC2CC3)cn1 (stereo not shown) [Example 56, 9-(6-chloro-3-pyridinyl)-3,9-diazabicyclo[4.2.1]nonane fumarate] | 0.21 nM
12 | COc1cncc(N2C[C@@H]3C[C@H]2CN3)c1 [Example 43, (1S,4S)-2-(5-methoxy-3-pyridinyl)-2,5-diazabicyclo[2.2.1]heptane bis(4-methylbenzenesulfonate)] | 0.57 nM
13 | COC(=O)c1cc(N2C[C@@H]3C[C@H]2CN3)nnc1Cl [Example 9, (1S,4S)-2-(6-chloro-5-methoxycarbonyl-3-pyridazinyl)-2,5-diazabicyclo[2.2.1]heptane bis(4-methylbenzenesulfonate)] | > 10000 nM
14 | Clc1ccc(N2CC3CCC(C2)N3)cn1 [Example 12, 3-(6-chloro-3-pyridinyl)-3,8-diazabicyclo[3.2.1]octane dihydrochloride] | 93 nM
15 | Nc1ccc(N2CC3CCC(C2)N3)cn1 [Example 11, 3-(6-amino-3-pyridinyl)-3,8-diazabicyclo[3.2.1]octane trihydrochloride] | 37 nM
16 | CN1C[C@@H]2C[C@H]1CN2c1nnc(Cl)c2ccccc12 [Example 8, (1S,4S)-2-(4-chloro-1-phthalazinyl)-5-methyl-2,5-diazabicyclo[2.2.1]heptane bis(4-methylbenzenesulfonate)] | 2600 nM
17 | c1cnnc(N2CC3CCC(C2)N3)c1 [Example 14, 3-(3-pyridazinyl)-3,8-diazabicyclo[3.2.1]octane dihydrochloride] | 11 nM
18 | O=[N+]([O-])c1ccc(N2CC3CCC(C2)N3)cn1 [Example 10, 3-(6-nitro-3-pyrdinyl)-3,8-diazabicyclo[3.2.1]octane dihydrochloride] | 37 nM
19 | c1ccc(COc2cncc(N3C[C@@H]4C[C@H]3CN4)c2)cc1 [Example 21, (1S,4S)-2-[5-(benzyloxy)-3-pyridinyl]-2,5-diazabicyclo[2.2.1]heptane 4-methylbenzenesulfonate] | 0.33 nM
